Reference: US8853228B2, “Heterocyclic analogs of propargyl-linked inhibitors of dihydrofolate reductase” (University of Connecticut, priority 2011, dated 2014)
≈ marks a conversion by molar mass, not a printed value. Read-outs that look alike come from different tables or passages of the source.

Tests used:
CgDHFR = CgDHFR (Candida glabrata (strain ATCC 2001 / BCRC 20586 / JCM 3761 / NBRC 0622 / NRRL Y-65 / CBS 138) (Yeast) (Nakaseomyces glabratus), UniProt Q6FPH0); experiment: biochemical
Excerpt: CgDHFR: The gene coding CgDHFR was amplified by PCR from C. glabrata genomic DNA obtained from ATCC. The gene was inserted in a pET41 vector that includes a C-terminal histidine tag for nickel affinity chromatography. E. coli cells were transformed and the resulting plasmid was verified by sequencing. The protein was expressed in E. coli BL21(DE3) cells with isopropyl β-D-thiogalactoside induction. Following growth, the cells were lysed with BugBuster (Novagen) and centrifuged; the supernatant was loaded on a Ni-NTA column. The column was washed with 20 mM Tris (pH 8.0)/0.4 M NaCl and the protein was eluted using a gradient of 20 mM Tris (pH 8.0), 0.3 M NaCl, 20% glycerol, 0.1 mM EDTA, 2 mM DTT, 250 mM imidazole. Fractions containing CgDHFR were identified by SDS-PAGE, combined and desalted using a PD-10 column with a buffer containing 20 mM Tris pH 8.0, 20% glycerol, 0.1 mM EDTA and 2 mM DTT. The protein was concentrated to 13 mg/mL.
(§1) Enzyme and inhibitor were allowed to incubate for 5 min before adding dihydrofolate to initiate the reaction. Enzyme assays were performed at least four times. IC50 values and their standard deviations were calculated in the presence of varying concentrations of inhibitor near the IC50 concentration.

C. glabrata = experiment: Antifungal assay (MIC, Alamar Blue); type: cell-based, Candida glabrata; conditions: for MIC (Cg): YM media
Experimental: Antifungal assays were performed using C. glabrata as a suspension in 50% glycerol at −78° C. For susceptibility testing, a streak of stock culture was made on SDA agar and grown at 30° C. for 48 h. One pure colony of the test organism was recovered from the plate, suspended in appropriate media and grown in a 5 mL shake flask culture. A sample of the shake flask culture was diluted to 1×10^5 cells/mL in media and added to 96-well test plates (100 μL per well) containing test compounds dispensed in DMSO (1 μL). Amphotericin and ketoconazole were used as controls. After an incubation period determined from the strain specific doubling time, Alamar Blue (10 μL) was added, allowed to incubate; each well was scored for dye reduction.
Several representative compounds were also evaluated in thymidine-depleted media. It has been shown that high levels of thymidine interfere with accurate susceptibility testing of antifolates. To compensate for this, antifolates are frequently evaluated in a controlled minimal media with a low thymidine concentration. […] In addition, the compounds were also evaluated for mammalian cell toxicity using MCF-10 and HepG2 cell lines. Cellular selectivity is reported as the IC50 value for the MCF-10 human cell line divided by the MIC value (μg/mL) (Table 8).

hDHFR = hDHFR (Homo sapiens (Human), UniProt P00374); experiment: hDHFR enzyme inhibition assay; type: biochemical; conditions: Table 7; read-out: IC50 (hDHFR)
Sequence of hDHFR (P00374 whole entry): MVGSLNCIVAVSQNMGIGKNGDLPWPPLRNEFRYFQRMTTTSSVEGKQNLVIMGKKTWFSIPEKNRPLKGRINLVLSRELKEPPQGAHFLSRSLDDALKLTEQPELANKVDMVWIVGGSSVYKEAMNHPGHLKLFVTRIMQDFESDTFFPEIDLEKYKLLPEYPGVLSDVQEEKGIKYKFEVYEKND
Experimental: hDHFR: The gene for hDHFR was amplified using PCR from cDNA obtained from ATCC. The gene was inserted in a pET41 vector with a C-terminal histidine tag for affinity chromatography. The resulting construct was verified by sequencing. The hDHFR protein was expressed in E. coli and purified using a nickel affinity column.
as §1
(§2) Enzyme inhibition assays were performed by monitoring the rate of NADPH oxidation by the DHFR enzyme at an absorbance of 340 nm. Assays were performed in the presence of saturating concentrations of NADPH and initiated with dihydrofolate. All assays were completed at 25° C. in a buffer containing 20 mM TES pH 7.0, 50 mM KCl, 10 mM 2-mercaptoethanol, 0.5 mM EDTA and 1 mg/mL BSA. Inhibition was measured at least three times with inhibitor concentrations near the IC50 value and the average IC50 value is reported with a standard deviation.

ChDHFR-TS = ChDHFR-TS (Cryptosporidium hominis, UniProt Q27552); experiment: ChDHFR enzyme inhibition assay; type: biochemical; conditions: Table 4
Sequence of ChDHFR-TS (Q27552 1-521): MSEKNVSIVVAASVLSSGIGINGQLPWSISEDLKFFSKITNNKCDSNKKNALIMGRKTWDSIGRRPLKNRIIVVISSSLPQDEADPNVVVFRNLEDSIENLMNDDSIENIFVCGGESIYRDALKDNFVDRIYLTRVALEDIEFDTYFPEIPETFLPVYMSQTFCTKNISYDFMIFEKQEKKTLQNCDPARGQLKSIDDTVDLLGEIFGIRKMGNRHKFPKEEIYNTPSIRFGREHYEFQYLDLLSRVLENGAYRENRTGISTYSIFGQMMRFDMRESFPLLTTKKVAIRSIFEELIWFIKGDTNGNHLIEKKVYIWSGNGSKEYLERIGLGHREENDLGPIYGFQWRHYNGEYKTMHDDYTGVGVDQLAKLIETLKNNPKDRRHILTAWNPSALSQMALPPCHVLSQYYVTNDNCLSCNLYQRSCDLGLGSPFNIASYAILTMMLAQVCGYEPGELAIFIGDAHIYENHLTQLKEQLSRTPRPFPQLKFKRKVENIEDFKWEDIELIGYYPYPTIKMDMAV
Experimental: as §1
Compounds were evaluated in spectrophotometric enzyme assays using ChDHFR-TS and hDHFR. Inhibition constants (IC50) were measured (see Table 4). […] The compound abbreviations in Table 4 refer to the following compounds: […]

S. pyogenes DHFR = S. pyogenes DHFR (Streptococcus pyogenes, UniProt Q9A091); experiment: S. pyogenes DHFR enzyme inhibition assay; type: biochemical; conditions: average of at least three measurements
Sequence of S. pyogenes DHFR (Q9A091 1-165): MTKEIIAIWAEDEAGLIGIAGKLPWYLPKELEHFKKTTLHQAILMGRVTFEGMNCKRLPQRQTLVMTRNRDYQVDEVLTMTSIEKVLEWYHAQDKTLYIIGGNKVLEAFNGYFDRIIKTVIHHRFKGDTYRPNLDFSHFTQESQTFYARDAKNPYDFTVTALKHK
Experimental: as §2

MCF-10 cells = experiment: Mammalian cell toxicity, MCF-10; type: cell-based, human; conditions: cytotoxicity, Table 6
Experimental: Adherent cell lines were maintained in Eagle's Minimal Essential Media (Sigma-Aldrich, St. Louis, Mo., USA) with 2 mM glutamine and Earle's Balanced Salt Solution (HyClone, Logan, Utah, USA) adjusted to contain 1.5 g/L sodium bicarbonate, 0.1 mM non-essential amino acids, 1 mM sodium pyruvate and 10% fetal calf serum. Fetal calf serum used in these assays was lot matched throughout. […] Toxicity assays were conducted between passages 10-20. Target compound toxicity was measured by incubating the test compound with the cells for 4 h, washing the cells and finally treating the cells with Alamar Blue. After 12-24 h, the fluorescence of the reduced dye was measured. Fluorescence intensity as a function of test compound concentration was fit to the Fermi equation, using non-linear least squares regression analysis, to estimate IC50 values.

S. aureus 13709 (MRSA) = experiment: Antibacterial MIC, broth microdilution with Alamar Blue; type: cell-based, Staphylococcus aureus; conditions: Table 6
Experimental: (§3) For susceptibility testing, 10 μL of glycerol stock was suspended in a 10 mL shake flask culture of chemically defined Isosensitest broth (Oxoid) supplemented with 2% w/v glucose. A sample of the shake flask culture was diluted to 1×10^6 cells/mL in media and added to 96-well test plates (100 μL per well) containing test compounds dispensed in DMSO (2 μL). After an incubation period (30° C.) determined from the strain specific doubling time, a 0.03% w/v aqueous solution of resazurin (10 μL) was added and the plates were allowed to incubate; each well was then scored for dye reduction.

S. aureus DHFR = S. aureus DHFR (Staphylococcus aureus, UniProt P0A017); type: biochemical; conditions: average of at least three measurements
Experimental: as §2

Streptococcus pyogenes = experiment: Antibacterial MIC, broth microdilution with Alamar Blue; type: cell-based; conditions: Table 6
Experimental: as §3

[1] = Table 7, read-out: IC50 (CgDHFR)
[2] = C. glabrata, Inact: not active at 2 mM (~600 μg/mL)

Sequence of CgDHFR (Q6FPH0 1-217): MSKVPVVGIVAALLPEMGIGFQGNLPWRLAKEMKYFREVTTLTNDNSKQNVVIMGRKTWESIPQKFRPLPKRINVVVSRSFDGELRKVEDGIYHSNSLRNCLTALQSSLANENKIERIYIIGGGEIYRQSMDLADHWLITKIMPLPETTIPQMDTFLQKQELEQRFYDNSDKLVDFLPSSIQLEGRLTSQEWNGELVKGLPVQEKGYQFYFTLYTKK

Structure (SMILES): COc1cc(C(C)C#Cc2c(C)nc(N)nc2N)cc(N2CCN(C)CC2)c1 (stereo not drawn) [Compound 158]
- Selectivity (CgDHFR; Table 7, hDHFR vs CgDHFR): 9 ± 1
- IC50 (CgDHFR; [1]): 30 ± 3 nM
- MIC (Cg) (C. glabrata; C. glabrata): 95 µg/mL (≈ 250 µM)
- IC50 (hDHFR): 280 ± 17 nM

Structure (SMILES): COc1ccc(OC)c(CC#Cc2cnc(N)nc2N)c1 [Compound 9]
- IC50 (CgDHFR; Table 3, read-out: CgDHFR IC50): 21 nM
- IC50 (CgDHFR; read-out: IC50 against CgDHFR): ≤ 25 nM
- Antifungal activity MIC (C. glabrata; [2]): 72 µg/mL

Structure (SMILES): COc1cc(-c2c(C(C)C)cccc2C(C)C)cc(C(C)C#Cc2c(C)nc(N)nc2N)c1 (stereo not drawn) [Compound D26I, 5-[3-(5-methoxy-2′6′-diisopropylbiphenyl-3-yl)but-1-yn-1-yl]-6-methylpyrimidine-2,4-diamine]
- IC50 (ChDHFR-TS; read-out: IC50 (ChDHFR)): 10 nM

Structure (SMILES): COc1cc(-c2ccccc2C)cc(C(C)C#Cc2c(C)nc(N)nc2N)c1 (stereo not drawn) [Compound D6M, 5-[3-(5-methoxy-6′-methylbiphenyl-3-yl)but-1-yn-1-yl]-6-methylpyrimidine-2,4-diamine]
- IC50 (ChDHFR-TS; read-out: IC50 (ChDHFR)): 2.1 ± 0.3 nM

Structure (SMILES): COc1cc(-c2ccc(C)cc2)cc([C@@H](C)C#Cc2c(C)nc(N)nc2N)c1 [Compound 141]
- IC50 against CgDHFR (CgDHFR): subnanomolar
- IC50 (CgDHFR; [1]): 0.6 ± 0.3 nM
- IC50 (CgDHFR; Table 11, read-out: CgDHFR IC50): 0.6 nM
- MIC (Cg) (C. glabrata; C. glabrata): 1.5 µg/mL (≈ 4.03 µM)
- Antifungal activity MIC (C. glabrata; Table 11, C. glabrata): 1.5 µg/mL
- IC50 (S. pyogenes DHFR): 350 ± 44 nM
- IC50 (MCF-10 cells): 55000 nM
- MIC MRSA (S. aureus 13709 (MRSA)): 0.71 µg/mL (≈ 1.91 µM)
- IC50 (S. aureus DHFR): 410 ± 36 nM
- MIC S. pyogenes (Streptococcus pyogenes): 0.024 µg/mL (≈ 0.0644 µM)

Structure (SMILES): COc1cc(C(O)C#Cc2c(C)nc(N)nc2N)cc(OC)c1OC (stereo not drawn) [Compound 7, 3-(2,4-diamino-6-methylpyrimidin-5-yl)-1-(3,4,5-trimethoxyphenyl)prop-2-yn-1-ol]
- IC50 (CgDHFR; CgDHFR IC50, Table 3): 39 nM
- Antifungal activity MIC (C. glabrata; [2]): Inact

Structure (SMILES): COc1cc(C(C#Cc2c(C)nc(N)nc2N)OC)cc(OC)c1OC (stereo not drawn) [Compound 8, 5-[3-methoxy-3-(3,4,5-trimethoxyphenyl)prop-1-yn-1-yl]-6-methylpyrimidine-2,4-diamine]
- IC50 (CgDHFR; CgDHFR IC50, Table 3): 30 nM
- Antifungal activity MIC (C. glabrata; [2]): Inact

Structure (SMILES): COc1ccc(OC)c(CC#Cc2c(C)nc(N)nc2N)c1 [Compound 10]
- IC50 (CgDHFR; Table 3, read-out: CgDHFR IC50): 32 nM
- Antifungal activity MIC (C. glabrata; [2]): 56 µg/mL

Structure (SMILES): COc1cc(-c2ccccc2)cc([C@H](C)C#Cc2c(C)nc(N)nc2N)c1 (single isomer, unassigned) [D (S), 5-[3-(5-methoxy-biphenyl-3-yl)but-1-yn-1-yl]-6-methylpyrimidine-2,4-diamine]
- IC50 (ChDHFR-TS; IC50 (ChDHFR)): 30 nM

Structure (SMILES): COc1cc(-c2c(C)cccc2C)cc(C(C)C#Cc2c(C)nc(N)nc2N)c1 (stereo not drawn) [Compound D26M, 5-[3-(5-methoxy-2′6′-dimethylbiphenyl-3-yl)but-1-yn-1-yl]-6-methylpyrimidine-2,4-diamine]
- IC50 (ChDHFR-TS; read-out: IC50 (ChDHFR)): 2.1 ± 0.5 nM
